Experiments:
[1] = system: LPS-triggered inflammatory response (serum TNF-α, IL-6, IL-1β); assay: LPS induced inflammatory cytokines in vivo; settings: mice pre-injected with compound, then LPS
Text: (+)-Ainsliadimer A (223) is a structurally unique and complex sesquiterpene lactone dimer with an unprecedented carbon skeleton, which was originally isolated from Ainsliaea macrocephala used in traditional Chinese medicine for the treatment of various diseases, including angina and rheumatoid arthritis^22. Aiming for the systematical chemical genetic studies using bioactive natural products, we have successfully accomplished the first enantioselective total syntheses of 223 as well as other related dimeric and trimeric sesquiterpenoids^23-25, which provided us ample material to extensively investigate their biological activities and potential therapy application. […] As an endotoxin, LPS is known to cause a systemic inflammatory response and acute tissue injury when injected into mice. Thus, we attempt to examine the effect of 223 on LPS-triggered inflammatory response in vivo. Mice were pre-injected with or without vehicle or 223, and then followed by administration of PBS or LPS.

phosphorylation of IκBα = assay: poly(I:C) (TLR3 ligand) triggered IκBα phosphorylation; format: cell-based
recombinant Flag-IKKβ = biological target: T1, recombinant Flag-IKKβ (Homo sapiens, UniProt O14920); assay: Binding to purified recombinant protein (SDS-PAGE, streptavidin blot); settings: excess unlabeled compound
T1 construct: made in house; host or cells: 293T cells (transient transfection, anti-Flag purification)
Protocol: To determine whether 223 directly binds to IKKα and IKKβ, we generated recombinant IKKα and IKKβ proteins for further analysis. 293T cells were transfected with Flag-IKKα or Flag-IKKβ plasmid, and the recombinant Flag-IKKα or Flag-IKKβ was captured by anti-Flag agarose beads and was then eluted off the beads using Flag peptide. The purified Flag-IKKα or Flag-IKKβ was incubated with DMSO or increasing concentrations of Probe, and then the mixtures were resolved by SDS-PAGE, followed by immunoblotting with streptavidin or anti-Flag antibody.

IKKγ/NEMO = IKKγ/NEMO (Homo sapiens, UniProt Q9Y6K9); assay: Association with other NF-κB pathway proteins; format: binding
TAB1 = TAB1 (Homo sapiens, UniProt Q15750); assay: Association with other NF-κB pathway proteins; format: binding
IKKβ C46A = biological target: T2, IKKβ C46A (Homo sapiens, UniProt O14920, C46A); assay: Binding to IKKβ cysteine mutants
T2 construct: Flag; made in house

IKKβ Cys46 into serine = biological target: T3, IKKβ Cys46 into serine (Homo sapiens, UniProt O14920, C46S); assay: Binding to Cys46-to-serine mutant
T3 construct: Flag; made in house

[2] = system: peptides 1A, 2A, 1S and 2S (cysteine 46 replaced by alanine or serine); assay: Peptide binding by MALDI-TOF; design: species or system human
[3] = system: IKKβ C215 containing peptides #3 and #4; assay: Peptide binding by MALDI-TOF; design: species or system human
IKKβ = biological target: T4, IKKβ (Homo sapiens, UniProt O14920); assay: IKKβ kinase inhibition; format: biochemical; settings: read-out: IC50 against IKKβ
T4 sequence (O14920 1-756): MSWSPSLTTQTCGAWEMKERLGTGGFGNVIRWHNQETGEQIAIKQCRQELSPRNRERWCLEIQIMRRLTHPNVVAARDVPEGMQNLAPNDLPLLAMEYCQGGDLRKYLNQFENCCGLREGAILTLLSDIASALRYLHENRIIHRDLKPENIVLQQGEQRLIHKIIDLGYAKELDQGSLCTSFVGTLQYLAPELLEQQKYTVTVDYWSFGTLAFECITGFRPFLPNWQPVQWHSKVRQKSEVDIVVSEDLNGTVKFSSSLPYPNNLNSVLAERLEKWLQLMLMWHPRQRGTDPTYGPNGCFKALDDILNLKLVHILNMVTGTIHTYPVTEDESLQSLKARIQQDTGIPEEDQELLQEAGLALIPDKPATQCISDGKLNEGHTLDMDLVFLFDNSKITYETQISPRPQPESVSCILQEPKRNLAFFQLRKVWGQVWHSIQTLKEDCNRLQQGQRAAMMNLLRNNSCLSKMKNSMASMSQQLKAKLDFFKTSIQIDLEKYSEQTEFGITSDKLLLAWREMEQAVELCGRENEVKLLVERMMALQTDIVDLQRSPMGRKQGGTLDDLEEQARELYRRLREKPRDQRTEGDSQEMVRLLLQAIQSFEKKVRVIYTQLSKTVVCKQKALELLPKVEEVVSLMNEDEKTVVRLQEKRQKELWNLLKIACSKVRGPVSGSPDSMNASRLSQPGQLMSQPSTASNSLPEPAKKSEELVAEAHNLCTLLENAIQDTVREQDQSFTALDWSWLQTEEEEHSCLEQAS
Text: To further explore how (+)-ainsliadimer A inactivates IKKα/β, we conducted the molecular dynamics (MD) simulations using the first crystal structure of IKKβ^29 to sample the conformational states of IKKβ upon 223 binding. […] We next asked whether 223 could directly affect IKKβ kinase activity.

glioblastoma T98G cells = assay: Cancer cell survival; format: cell-based, human; settings: different concentration
[4] = system: gastric adenocarcinoma BCG-823 cells; assay: Cancer cell survival; format: cell-based, human
[5] = system: BGC-823 human gastric adenocarcinoma xenograft; assay: BGC-823 xenograft in nude mice; format: in vivo; settings: 223 25 mg/kg, qdx8
Protocol: Next we further examined anti-tumor effect of 223 in vivo. Nude mice bearing a BGC-823 human gastric adenocarcinoma xenograft were treated with vehicle or 223 (25 mg/kg, qdx8) or 10-hydroxycamptothecin (HCPT), a widely used anti-tumor drug (30 mg/kg, q6dx2).

[6] = system: panel of structurally related kinases
[7] = system: IKKβ, other eight cysteine-to-alanine mutants; assay: Binding to IKKβ cysteine mutants
Text: In order to evaluate which of them is critical for the binding of 223, we individually mutated these nine cysteine residues of IKKβ into alanines.

WT-IKKβ = WT-IKKβ (Homo sapiens, UniProt O14920); assay: In vitro kinase assay with Flag-IκBα substrate
C46A-IKKβ = C46A-IKKβ (Homo sapiens, UniProt O14920, C46A); assay: In vitro kinase assay with Flag-IκBα substrate
Sequence of C46A-IKKβ (O14920 whole entry C46A): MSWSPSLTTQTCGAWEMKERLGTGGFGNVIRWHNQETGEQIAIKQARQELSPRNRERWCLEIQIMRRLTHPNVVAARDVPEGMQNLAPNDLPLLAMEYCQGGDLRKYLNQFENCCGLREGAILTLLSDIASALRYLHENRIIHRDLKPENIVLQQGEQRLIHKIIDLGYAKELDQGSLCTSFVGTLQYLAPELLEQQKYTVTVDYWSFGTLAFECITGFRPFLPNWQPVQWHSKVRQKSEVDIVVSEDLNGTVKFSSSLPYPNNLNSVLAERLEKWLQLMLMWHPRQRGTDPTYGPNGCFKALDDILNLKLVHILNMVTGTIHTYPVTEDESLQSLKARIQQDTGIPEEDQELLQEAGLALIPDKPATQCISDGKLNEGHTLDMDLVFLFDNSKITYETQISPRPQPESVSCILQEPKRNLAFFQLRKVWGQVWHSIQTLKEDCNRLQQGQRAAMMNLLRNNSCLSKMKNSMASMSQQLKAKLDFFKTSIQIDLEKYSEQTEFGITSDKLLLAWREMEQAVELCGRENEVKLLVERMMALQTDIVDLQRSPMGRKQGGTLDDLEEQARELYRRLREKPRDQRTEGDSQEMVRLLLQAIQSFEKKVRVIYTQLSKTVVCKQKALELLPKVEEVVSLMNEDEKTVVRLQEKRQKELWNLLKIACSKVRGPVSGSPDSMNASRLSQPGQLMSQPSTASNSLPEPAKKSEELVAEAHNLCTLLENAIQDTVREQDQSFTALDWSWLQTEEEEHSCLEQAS

T2 sequence (O14920 whole entry C46A): as above
Sequence of TAB1 (Q15750 whole entry, species assumed): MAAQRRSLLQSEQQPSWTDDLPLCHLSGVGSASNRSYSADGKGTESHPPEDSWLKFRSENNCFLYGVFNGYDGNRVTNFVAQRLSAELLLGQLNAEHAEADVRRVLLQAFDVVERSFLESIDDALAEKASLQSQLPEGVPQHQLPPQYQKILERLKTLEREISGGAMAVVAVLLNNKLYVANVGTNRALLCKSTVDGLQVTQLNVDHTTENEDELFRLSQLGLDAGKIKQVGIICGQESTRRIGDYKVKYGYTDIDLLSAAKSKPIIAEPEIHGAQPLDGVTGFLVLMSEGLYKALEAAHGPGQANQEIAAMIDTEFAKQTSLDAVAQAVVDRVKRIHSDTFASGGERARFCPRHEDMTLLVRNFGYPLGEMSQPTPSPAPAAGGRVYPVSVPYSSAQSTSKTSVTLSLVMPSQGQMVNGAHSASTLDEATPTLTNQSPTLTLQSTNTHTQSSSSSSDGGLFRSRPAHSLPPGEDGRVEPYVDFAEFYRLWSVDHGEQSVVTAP
T3 sequence (O14920 whole entry C46S): as the sequence (O14920 whole entry C46A) above, with A46S counted along it
Sequence of IKKγ/NEMO (Q9Y6K9 whole entry): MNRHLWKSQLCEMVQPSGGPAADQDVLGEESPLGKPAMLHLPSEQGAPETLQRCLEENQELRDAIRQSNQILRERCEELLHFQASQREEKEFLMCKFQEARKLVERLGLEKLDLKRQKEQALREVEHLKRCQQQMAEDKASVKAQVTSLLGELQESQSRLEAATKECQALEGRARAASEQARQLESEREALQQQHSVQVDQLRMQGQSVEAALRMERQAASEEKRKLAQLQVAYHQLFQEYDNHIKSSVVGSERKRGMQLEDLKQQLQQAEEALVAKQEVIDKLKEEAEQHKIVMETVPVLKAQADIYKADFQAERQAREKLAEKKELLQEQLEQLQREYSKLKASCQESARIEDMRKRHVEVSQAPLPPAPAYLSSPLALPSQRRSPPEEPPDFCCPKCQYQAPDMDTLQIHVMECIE

In the case of `C=C1C(=O)O[C@@H]2[C@@H]3[C@@H](C[C@@]4(O)[C@]3(O)CC[C@]43C(=O)C[C@H]4C(=C)CC[C@H]5C(=C)C(=O)O[C@@H]5[C@H]43)C(=C)CC[C@@H]12` [Compound 223, (+)-Ainsliadimer A], the “up-regulation of serum IL-1β” value [1] is reported as “greatly attenuated”, the “up-regulation of serum IL-6” value [1] is reported as “greatly attenuated” and the “up-regulation of serum TNF-α” value [1] is reported as “greatly attenuated”. For the same compound, the “phosphorylation of IκBα triggered by poly(I:C)” value (phosphorylation of IκBα) was “markedly suppressed”, the “competition of Probe binding to recombinant IKKβ” value (recombinant Flag-IKKβ) was “competed off” and the “association with IKKγ/NEMO” value (IKKγ/NEMO) was “no association”. For the same compound, the “association with TAB1” value (TAB1) was “no association”, the “interaction of IKKβ C46A mutant with compound” value (IKKβ C46A) was “completely lost the ability to interaction” and the “interaction with IKKβ Cys46 to serine mutant” value (IKKβ Cys46 into serine) was “abolished”. For the same compound, the “binding to peptides 1A, 2A, 1S and 2S” value [2] was “lost the ability to bind”, the “association with peptides #3 and #4” value [3] was “no association” and the IC50 (IKKβ) was 76 nM. For the same compound, the cell death (glioblastoma T98G cells) was “Dramatic cell death”, the “inhibition of cell survival (cell viability by ATP levels)” value ([4]; BCG-823, 48 hours) was “dose response inhibition” and the cell death ([4]; BCG-823, different concentration) was “Dramatic cell death”. The “anti-tumor effect relative to HCPT (30 mg/kg, q6dx2)” value [5] was “comparable”, the “side effects and body weight during administration” value ([5]; HCPT 30 mg/kg, q6dx2) was “did not display any discernible side effects or significant changes in body weight” and the “mice with significant tumor remission” value ([5]; after 12 days) was “eight of eight”. For the same compound, the xenograft tumor response ([5]; after 12 days, compared to vehicle) was “Significant xenograft tumor remission”, the “selectivity against a panel of structurally related kinases” value [6] was “excellent selectivity” and the “binding of other eight IKKβ cysteine mutants” value [7] was “retained high affinity binding”. The “WT-IKKβ-induced phosphorylation of IκBα” value (WT-IKKβ) was “significantly suppressed” and the “phosphorylation of IκBα triggered by C46A-IKKβ” value (C46A-IKKβ) was “resistant”.

— patent US9670226B2, “Sesquiterpenoids” (National Institute of Biological Sciences, Beijing, priority 2014, dated 2017)
